Assay results from patent US20070264229A1, “Peptides for Treatment of Autoimmune Disease” (priority 2004, published 2007).
Read-outs that look alike come from different tables or passages of the source.

Experiments:
[1] = system: spleen and lymph node cells of SJL/J mice; conditions: copolymer, Illés 2004 / Stern 2004 PNAS; cited from earlier work
[2] = system: MBP85-99-specific transgenic (hVβ2+CD4+) and endogenous (hVβ2−CD4+) T cells; test: Cross-reactivity: proliferation of sorted transgenic and endogenous CD4+ T cells from humanized mice; format: cell-based, mouse; conditions: 10 μg/ml MBP85-99 or 100 μg/ml peptide, FIG. 3A
Description: To sort human TCR transgenic T cells specific to MBP 85-99, splenocytes from humanized mice were incubated with anti-CD4-APC (clone GK1.5, obtained from PharMingen, San Diego, Calif.) and anti-human Vβ2-PE (Immunotech, Marseille, France) at room temperature for 20 min. After washing twice, tg and endogenous or non-tg CD4 T cells (hVβ2^−CD4 cells) were sorted using a FACS Vantage SE apparatus (Becton Dickinson, San Diego, Calif.). The purity of fractionated hVβ2^+CD4^+ and hVβ2^−CD4^+ T cells was determined to be 98-99%.
SJL/J mice were immunized with PLP 139-151 or with each of the peptides (100 μg per mouse) emulsified in complete Freund's adjuvant (CFA; Difco Laboratories, Detroit, Mich.). Ten days later, single cell suspensions were prepared from spleens and lymph nodes, and were stimulated and re-stimulated with corresponding peptides at a concentration of 10 μg/ml in the presence of APC. After two rounds of stimulation, viable lymphocytes were separated by Ficoll-Hypaque density gradient centrifugation and were tested for specificity at a dose range of 0 to 50 μg/ml. NASE 101-120 peptide, which also binds I-A^s was used as a negative control. Lymphocytes were cultured in 96-well plates at a density of 5×10^5 cells per ml for 48 hrs, and were pulsed with ^3[H]-thymidine, 1 μCi per well. After sixteen hours of culture, plates were harvested and a Wallac scintillation counter (model 1250) was used to analyze the proliferative response determined by amount of ^3[H]-thymidine incorporation CPM. To determine the proliferative response of each of tg T cells expressing HLA-DR2 and human MBP 85-99-specific TCR, and non-tg T cells, the cells fractionated by flow cytometry were seeded in complete medium at 4×10^5 cells/well in 96-well U-bottom microtiter plates. Irradiated splenocytes of humanized mice were used as APC.
Therefore, MBP85-99-specific transgenic (hVβ2^+CD4^+) and endogenous (non-transgenic, hVβ2^−CD4^+) T cells were sorted by flow cytometry from spleen cells of humanized double transgenic mice.

HLA-DR2 (DRA/DRB1*1501) = molecular target: T1, HLA-DR2 (DRA/DRB1*1501) (Homo sapiens, UniProt P01903+P01911); test: Competitive binding assay for HLA-DR2: inhibition of biotinylated MBP 85-99 binding
T1 construct: isolate soluble HLA-DR2 molecules which had been expressed in Drosophila S2 cells; made in house; host or cells: Drosophila S2 cells
Description: The reaction mixtures were transferred to plates coated with LB3.1 Ab specific to HLA DR2 molecules. Following addition of streptavidin-conjugated alkaline phosphatase, absorbance was measured at 450 nm by using a microtiter plate reader. Percent inhibition was calculated as described in the Materials and Methods. […] These studies were performed as described ([…]. et al. 2002. J Clin Invest 109:1635). […] Antigen presentation assay was performed as described previously [[…]. et al. 2001 Hum Immunol 62:753].

relapsing-remitting MS = conditions: relapsing-remitting forms of MS, cited from earlier work
[3] = system: EAE in HLA-DR2 and MBP85-99-specific TCR double tg mice; conditions: previous study, Illés 2004 PNAS 101:11749; cited from earlier work
[4] = system: PLP139-151 specific cell line; test: Cross-reactivity with PLP139-151 specific cell line; format: cell-based, mouse; conditions: FIG. 3B
Description: The proliferative responses were measured as CPM after pulsing with ^3[H] thymidine.

[5] = system: PLP139-151-specific CD4+ T cells; test: Detection of PLP 139-151-reactive CD4+ T cells with I-As/PLP 139-151 tetramers; format: in vivo, mouse; conditions: SJL mice immunized with PLP139-151 alone, cultured 4 days, FIG. 7A
Description: After 10 days, lymphocytes were cultured with PLP 139-151. Four days later, after gating with anti-CD4, anti-CD25, and 7-amino-actinomycin D (7-AAD), live cells were incubated with I-A^s tetramers with PLP 139-151 (left) or with control peptide TMEV 70-86 (right) for 3 hrs. The I-A^s/tetramer-stained cells were determined in live CD4^+ T cell subset after eliminating dead cells (7-AAD positive).
SJL/J mice in groups of 3 animals were immunized with CFA alone or with PLP 139-151, with or without each of the peptides (75 μg each/mouse) in CFA. On day 10, all mice were sacrificed, and single cell suspensions were prepared and cultured at a density of 5×10^6 cells per ml in DMEM medium containing 10% fetal calf serum (FCS), 2 mM L-glutamine, 10 mM HEPES, 2 mM mercaptoethanol, penicillin (1000 U/ml) and streptomycin (1 μg/ml) (Biowhittaker, Walkersville, Md.). The cultures from each of the above groups were re-stimulated with PLP 139-151 with or without peptides (25 μg per ml). The mice treated with CFA only were used as negative control to validate immunizations; the PLP 139-151-immunized mice were used as positive controls to which the effect of peptides on PLP 139-151-specific CD4^+ T cell responses was compared.
After 4 days of culturing, cell suspensions were subjected to Ficoll-Hypaque density gradient centrifugation and were washed twice using PBS. […]

[6] = system: spleen and lymph node cells of SJL/J mice; test: Cytokine measurement by ELISA in cultures from immunized SJL/J mice; format: cell-based, mouse; conditions: re-stimulated with cognate peptide 2 days, FIG. 4
Description: After ten days, single cell suspensions derived from lymph nodes and spleens were re-stimulated with the corresponding peptides in the presence of antigen presenting cells for two days. Culture supernatants were analyzed for amount of secretion of IL-2, IL-4, IL-10 and IFN-γ by ELISA.
Cytokine mAb directed against each of IL-2, IL-4, IL-10, and IFN-γ was coated into wells of 96-well plates at a concentration of 1 μg/ml overnight. Plates were washed and were treated with blocking solution (Kierkegaard and Perry, Gaithersburg, Md.), followed by incubation of each of the cytokine standards and the culture supernatants overnight at 4° C. After washing, plates were incubated with corresponding biotinylated anti-cytokine-detecting mAb (1 μg/ml) for 2 hrs. Plates were developed by addition of avidin/peroxidase and its substrate. The mAb pairs used were from the following clones: IL-2: JES6-A112, and JES6-5H4; IL-4: 11B11 and BVD6-24G2; IL-10: JES5-16E3 and SXC-1; and IFN-γ: R4-6A2 and XMG 1.2 (PharMingen).

In the case of poly(F,Y,A,K)n [FYAK], the “induction of immunosuppressive cytokines IL-4 and IL-10” value [1] is given as “most effective”.
For poly[Y, E, A, K]n [Cop1], the “proliferation of MBP85-99-specific transgenic or endogenous CD4+ cells” value [2] was “did not cross-react”, the “% inhibition” value (HLA-DR2 (DRA/DRB1*1501); Binding of biotinylated MBP (0.5 μM) by peptide competitor (1 μM)) was 8% and the “inhibition of binding of biotinylated MBP 85-99 to HLA-DR2 (in words)” value (HLA-DR2 (DRA/DRB1*1501); recombinant HLA-DR2, FIG. 1A and Table 1) was “less efficiently than peptides J1, J2, J3 and J5”. For the same substance, the “reduction of relapse rate” value (relapsing-remitting MS) was “about 30%”, the “reduction of relapse rate” value (relapsing-remitting MS; listed as Copolymer 1) was 30% and the mean maximal score [3] was 3.5. For the same substance, the “response of PLP139-151 specific cell line (cross reactivity)” value [4] was “did not cross-react”, the mean maximum score (EAE in SJL/J mice; at around day 22, co-immunized with PLP139-151, FIG. 5B) was 2.5 and the “severity of EAE (in words)” value (EAE in SJL/J mice; co-immunized with PLP139-151, FIG. 5B) was “moderately suppressed”.
In the case of “PLP139-151: one of the most immunodominant and encephalitogenic epitopes of PLP in SJL/J mice (CHCLGKWLGHPDK; UniProt P60202 139-151, looked up, fragment)”, the “expansion of PLP tetramer reactive cells” value [5] is reported as 1.5%, the IFN-γ production [6] is reported as “produced in significant amounts” and the IL-2 production [6] is reported as “produced in significant amounts”. The “Secretion of IL-4” value [6] was “comparable in all of the cultures”.
